Experiments:
Carboplatin = compound: C1CC(C1)(C(=O)[O-])C(=O)[O-].N.N.[Pt+2] [Carboplatin]; conditions: max 10 µM
Summary of the method: (§1)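 Plates with 1536 wells received cancer cell lines in 7.5 μl of DMEM/F12 or RPMI containing 10% FBS. After 24 hours at 37°C and 5% CO2, cells were dosed for 72 hours with final DMSO typically 0.2%, and viability was read by CellTiter-Glo 2.0 luminescence scaled between blank-well and DMSO-well means. The single-agent IC50 was taken from a logistic fit of the dose responses made with a non-linear mixed effects model, that logistic curve having two parameters.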

AZD5363 = compound: C1CN(CCC1(C(=O)N[C@@H](CCO)C2=CC=C(C=C2)Cl)N)C3=NC=NC4=C3C=CN4 [AZD5363]; conditions: max 10 µM
Summary of the method: as §1

AZD1775 = compound: C=CCn1c(=O)c2cnc(Nc3ccc(N4CCN(C)CC4)cc3)nc2n1-c1cccc(C(C)(C)O)n1 [AZD1775]; conditions: max 3 µM
Summary of the method: as §1

Trametinib = compound: CC(=O)Nc1cccc(-n2c(=O)n(C3CC3)c(=O)c3c(Nc4ccc(I)cc4F)n(C)c(=O)c(C)c32)c1 [Trametinib]; conditions: max 1 µM
Summary of the method: as §1

Paclitaxel = compound: CC(=O)O[C@H]1C(=O)[C@@]2(C)[C@H]([C@H](OC(=O)c3ccccc3)[C@]3(O)C[C@H](OC(=O)[C@H](O)[C@@H](NC(=O)c4ccccc4)c4ccccc4)C(C)=C1C3(C)C)[C@]1(OC(C)=O)CO[C@@H]1C[C@@H]2O [Paclitaxel]; conditions: max 3 µM
Summary of the method: as §1

Palbociclib = compound: CC(=O)c1c(C)c2cnc(Nc3ccc(N4CCNCC4)cn3)nc2n(C2CCCC2)c1=O [Palbociclib]; conditions: max 10 µM
Summary of the method: as §1

AZD1390 = compound: CC(C)n1c(=O)n(C)c2cnc3cc(F)c(-c4ccc(OCCCN5CCCCC5)nc4)cc3c21 [AZD1390]; conditions: max 0.3 µM
Summary of the method: as §1

Venetoclax = compound: CC1(C)CCC(CN2CCN(c3ccc(C(=O)NS(=O)(=O)c4ccc(NCC5CCOCC5)c([N+](=O)[O-])c4)c(Oc4cnc5[nH]ccc5c4)c3)CC2)=C(c2ccc(Cl)cc2)C1 [Venetoclax]; conditions: max 1 µM
Summary of the method: as §1

Dasatinib = compound: CC1=C(C(=CC=C1)Cl)NC(=O)C2=CN=C(S2)NC3=CC(=NC(=N3)C)N4CCN(CC4)CCO [Dasatinib]; conditions: max 2 µM
Summary of the method: as §1

SG3199 = compound: CC1=CN2[C@@H](C1)C=NC3=CC(=C(C=C3C2=O)OC)OCCCCCOC4=C(C=C5C(=C4)N=C[C@@H]6CC(=CN6C5=O)C)OC [SG3199]; conditions: max 0.001 µM
Summary of the method: as §1

AZD2811 = compound: CCN(CCO)CCCOc1ccc2c(Nc3cc(CC(=O)Nc4cccc(F)c4)[nH]n3)ncnc2c1 [AZD2811]; conditions: max 1 µM
Summary of the method: as §1

SN-38 = compound: CCc1c2c(nc3ccc(O)cc13)-c1cc3c(c(=O)n1C2)COC(=O)[C@]3(O)CC [SN-38]; conditions: max 0.3 µM
Summary of the method: as §1

AZD0156 = compound: CN(C)CCCOc1ccc(-c2ccc3ncc4c(c3c2)n(C2CCOCC2)c(=O)n4C)cn1 [AZD0156]; conditions: max 3 µM
Summary of the method: as §1

AZD4320 = compound: CN(CC[C@H](CSC1=CC=CC=C1)NC2=C(C=C(C=C2)S(=O)(=O)NC(=O)C3=CC=C(C=C3)N4CCC(CC4)[C@H](C5=CC=CC=C5C6=CC=C(C=C6)Cl)O)S(=O)(=O)C(F)(F)F)CCO [AZD4320]; conditions: max 1 µM
Summary of the method: as §1

Alisertib = compound: COc1cc(Nc2ncc3c(n2)-c2ccc(Cl)cc2C(c2c(F)cccc2OC)=NC3)ccc1C(=O)O [Alisertib]; conditions: max 10 µM
Summary of the method: as §1

Etoposide = compound: COc1cc([C@@H]2c3cc4c(cc3[C@@H](O[C@@H]3O[C@@H]5CO[C@@H](C)O[C@H]5[C@H](O)[C@H]3O)[C@H]3COC(=O)[C@H]23)OCO4)cc(OC)c1O [Etoposide]; conditions: max 10 µM
Summary of the method: as §1

Gefitinib = compound: COc1cc2ncnc(Nc3ccc(F)c(Cl)c3)c2cc1OCCCN1CCOCC1 [Gefitinib]; conditions: max 10 µM
Summary of the method: as §1

Prexasertib = compound: COc1cccc(OCCCN)c1-c1cc(Nc2cnc(C#N)cn2)n[nH]1 [Prexasertib]; conditions: max 1 µM
Summary of the method: as §1

Doxorubicin = compound: COc1cccc2c1C(=O)c1c(O)c3c(c(O)c1C2=O)C[C@@](O)(C(=O)CO)C[C@@H]3O[C@H]1C[C@H](N)[C@H](O)[C@H](C)O1 [Doxorubicin]; conditions: max 1 µM
Summary of the method: as §1

AZD5153 = compound: COc1nnc2ccc(N3CCC(c4ccc(OCCN5CCN(C)C(=O)[C@H]5C)cc4)CC3)nn12 [AZD5153]; conditions: max 1 µM
Summary of the method: as §1

Lapatinib = compound: CS(=O)(=O)CCNCc1ccc(-c2ccc3ncnc(Nc4ccc(OCc5cccc(F)c5)c(Cl)c4)c3c2)o1 [Lapatinib]; conditions: max 10 µM
Summary of the method: as §1

AZD8186 = compound: C[C@@H](Nc1cc(F)cc(F)c1)c1cc(C(=O)N(C)C)cc2c(=O)cc(N3CCOCC3)oc12 [AZD8186]; conditions: max 10 µM
Summary of the method: as §1

Crizotinib = compound: C[C@@H](Oc1cc(-c2cnn(C3CCNCC3)c2)cnc1N)c1c(Cl)ccc(F)c1Cl [Crizotinib]; conditions: max 10 µM
Summary of the method: as §1

Savolitinib = compound: C[C@@H](c1ccc2nccn2c1)n1nnc2ncc(-c3cnn(C)c3)nc21 [Savolitinib]; conditions: max 1 µM
Summary of the method: as §1

AZD6738 = compound: C[C@@H]1COCCN1C2=NC(=NC(=C2)C3(CC3)[S@](=N)(=O)C)C4=C5C=CNC5=NC=C4 [AZD6738]; conditions: max 10 µM
Summary of the method: as §1

AZD5991 = compound: Cc1c2c(nn1C)CSCc1cc(n(C)n1)CSc1cc(c3ccccc3c1)OCCCc1c(C(=O)O)n(C)c3c-2c(Cl)ccc13 [AZD5991]; conditions: max 1 µM
Summary of the method: as §1

AZD7648 = compound: Cc1cc2ncnn2cc1Nc1ncc2c(n1)n(C1CCOCC1)c(=O)n2C [AZD7648]; conditions: max 10 µM
Summary of the method: as §1

Taselisib = compound: Cc1nc(-c2cn3c(n2)-c2ccc(-c4cnn(C(C)(C)C(N)=O)c4)cc2OCC3)n(C(C)C)n1 [Taselisib]; conditions: max 10 µM
Summary of the method: as §1

Selumetinib = compound: Cn1cnc2c(F)c(Nc3ccc(Br)cc3Cl)c(C(=O)NOCCO)cc21 [Selumetinib]; conditions: max 10 µM
Summary of the method: as §1

SRA737 = compound: N#Cc1cnc(Nc2cc(NC[C@H]3CNCCO3)c(C(F)(F)F)cn2)cn1 [SRA737]; conditions: max 10 µM
Summary of the method: as §1

MK-2206 = compound: NC1(c2ccc(-c3nc4ccn5c(=O)[nH]nc5c4cc3-c3ccccc3)cc2)CCC1 [MK-2206]; conditions: max 10 µM
Summary of the method: as §1

Gemcitabine = compound: Nc1ccn([C@@H]2O[C@H](CO)[C@@H](O)C2(F)F)c(=O)n1 [Gemcitabine]; conditions: max 0.3 µM
Summary of the method: as §1

[1] = compound: O=C(Nc1ccc2[nH]nc(-c3ccncc3)c2c1)[C@@H]1CCN(CC(=O)N2CCN(c3ccc(-c4ncccn4)cc3)CC2)C1; conditions: max 5 µM
Summary of the method: as §1

Olaparib = compound: O=C(c1cc(Cc2n[nH]c(=O)c3ccccc23)ccc1F)N1CCN(C(=O)C2CC2)CC1 [Olaparib]; conditions: max 10 µM
Summary of the method: as §1

5-Fluorouracil = compound: O=c1[nH]cc(F)c(=O)[nH]1 [5-Fluorouracil]; conditions: max 20 µM
Summary of the method: as §1

Row | Cell Line | IC50, cell viability 72 h (Carboplatin) [nM] | IC50, cell viability 72 h (AZD5363) [nM] | IC50, cell viability 72 h (AZD1775) [nM] | IC50, cell viability 72 h (Trametinib) [nM] | IC50, cell viability 72 h (Paclitaxel) [nM] | IC50, cell viability 72 h (Palbociclib) [nM] | IC50, cell viability 72 h (AZD1390) [nM] | IC50, cell viability 72 h (Venetoclax) [nM] | IC50, cell viability 72 h (Dasatinib) [nM] | IC50, cell viability 72 h (SG3199) [nM] | IC50, cell viability 72 h (AZD2811) [nM] | IC50, cell viability 72 h (SN-38) [nM] | IC50, cell viability 72 h (AZD0156) [nM] | IC50, cell viability 72 h (AZD4320) [nM] | IC50, cell viability 72 h (Alisertib) [nM] | IC50, cell viability 72 h (Etoposide) [nM] | IC50, cell viability 72 h (Gefitinib) [nM] | IC50, cell viability 72 h (Prexasertib) [nM] | IC50, cell viability 72 h (Doxorubicin) [nM] | IC50, cell viability 72 h (AZD5153) [nM] | IC50, cell viability 72 h (Lapatinib) [nM] | IC50, cell viability 72 h (AZD8186) [nM] | IC50, cell viability 72 h (Crizotinib) [nM] | IC50, cell viability 72 h (Savolitinib) [nM] | IC50, cell viability 72 h (AZD6738) [nM] | IC50, cell viability 72 h (AZD5991) [nM] | IC50, cell viability 72 h (AZD7648) [nM] | IC50, cell viability 72 h (Taselisib) [nM] | IC50, cell viability 72 h (Selumetinib) [nM] | IC50, cell viability 72 h (SRA737) [nM] | IC50, cell viability 72 h (MK-2206) [nM] | IC50, cell viability 72 h (Gemcitabine) [nM] | IC50, cell viability 72 h [1] [nM] | IC50, cell viability 72 h (Olaparib) [nM] | IC50, cell viability 72 h (5-Fluorouracil) [nM]
1 | HCT-116 (Colorectal Carcinoma) | > 10000 | > 10000 | 1960 | 16.3 | 3.24 | 8690 | > 300 | > 1000 | > 2000 | > 1 | > 1000 | 19 | > 3000 | > 1000 | 1070 | 5460 | > 10000 | 635 | 218 | 244 | > 10000 | > 10000 | 2760 | > 1000 | 6970 | > 1000 | > 10000 | 2170 | 2500 | > 10000 | > 10000 | 13.1 | 129 | > 10000 | 10600
2 | HLE (Hepatocellular Carcinoma) | > 10000 | > 10000 | 625 | > 1000 | 60.3 | > 10000 | > 300 | > 1000 | > 2000 | > 1 | > 1000 | 14.3 | > 3000 | > 1000 | 2230 | > 10000 | > 10000 | 107 | 426 | > 1000 | > 10000 | > 10000 | > 10000 | > 1000 | 4910 | > 1000 | > 10000 | > 10000 | > 10000 | > 10000 | > 10000 | 114 | > 5000 | > 10000 | > 20000

Reference: the supplement of paper PMC11061612
